Each block holds one compound with its values, some of them ahead of it.
Assay: Polymorphic content by XRPD in bulk torsemide modification II on storage
Type: physicochemical
Parameters: key to Polymorphic form detected (I or II): “I” is Torsemide Modification I; “II” is Torsemide Modification II
Conditions: for Polymorphic form detected (I or II) / Polymorph Content / Polymorph Content: amount of Torsemide Modification I: bulk
Excerpt: 1. The present procedure is used for the detection and quantitative determination of the presence of torsemide modification I in tablets wherein the active ingredient is high purity torsemide modification II. The present procedure is also used for the detection and quantitative determination of torsemide modification I in bulk high purity torsemide modification II, which is to be used as the active ingredient in tablets. The present method is based on the unique x-ray powder diffraction pattern of torsemide modification I that is characterized by a strong peak at two-theta 5.7±0.2°, the presence of which indicates the presence of torsemide modification I in a sample of high purity torsemide modification II. 2.1 Instrument: Philips x-ray powder diffractometer. Goniometer model PW 1050/70, Cu-tube, curved graphite monochromator. 2.2 Sample holder: A standard aluminum sample holder with a rectangular cavity 20*15*0.3 mm inside it. Scanning range: 2θ=4° to at least 22° Step: 0.05° Step duration: 0.5 4.1 Gently grind a small amount of sample powder in an agate mortar with the pestle. 4.2 Fill the rectangular cavity on the sample holder with the powder.

[1] = first storage column (condition not given), 1 week
[2] = storage condition not given, 1 month
[3] = storage condition not given, 2 months
[4] = storage condition not given, 2 weeks

Polymorphic form detected (I or II) (storage 40° C., 75% RH, 1 month): II
Polymorphic form detected (I or II) (storage 40° C., 75% RH, 2 months): II
Polymorphic form detected (I or II) (storage 40° C., 75% RH, 2 weeks): II
Polymorphic form detected (I or II) (storage 40° C., 75% RH, 3 months): II
Polymorphic form detected (I or II) (storage 40° C., 75% RH, 4 months): II
Polymorphic form detected (I or II) (storage 55° C., 1 month): II
Polymorphic form detected (I or II) (storage 55° C., 1 week): II
Polymorphic form detected (I or II) (storage 55° C., 2 months): II
Polymorphic form detected (I or II) (storage 55° C., 2 weeks): II
Polymorphic form detected (I or II) (storage 55° C., 3 months): II
Polymorphic form detected (I or II) (storage 55° C., 4 months): II
Compound: Cc1cccc(Nc2ccncc2S(=O)(=O)NC(=O)NC(C)C)c1 [Bulk Lot No. 851700100, 1-Isopropyl-3-[(4-m-toluidino-3-pyridyl)-sulfonyl]urea]
Rearrangement into different polymorphic forms of torsemide (storage at 40° C. at 75% relative humidity for 3 months, tablet formulations or bulk active ingredient): does not undergo any significant rearrangement
Polymorphic stability during storage under stress conditions (listed as high purity torsemide modification II): stable during storage under stress conditions for at least 3 months

Polymorph Content (first storage column (condition not given), 1 month): I + II
Polymorph Content [1]: II >> I
Polymorph Content: amount of Torsemide Modification I [1]: ~0.4%
Polymorph Content (first storage column (condition not given), 2 months): I + II
Polymorph Content (first storage column (condition not given), 2 weeks): I + II
Polymorph Content (first storage column (condition not given), 3 months): I > II
Polymorph Content (first storage column (condition not given), 4 months): I + II
Polymorph Content [2]: II >> I
Polymorph Content: amount of Torsemide Modification I [2]: ~1%
Polymorph Content [3]: II >> I
Polymorph Content: amount of Torsemide Modification I [3]: ~6%
Polymorph Content [4]: II >> I
Polymorph Content: amount of Torsemide Modification I [4]: ~0.5%
Polymorph Content (storage condition not given, 3 months): I + II
Polymorph Content (storage condition not given, 4 months): I + II
Polymorph Content (t = 0): II >>> I
Polymorph Content: amount of Torsemide Modification I (t = 0): < 0.3%
Compound: Cc1cccc(Nc2ccncc2S(=O)(=O)NC(=O)NC(C)C)c1 [Bulk No. 851700200, 1-Isopropyl-3-[(4-m-toluidino-3-pyridyl)-sulfonyl]urea]
Polymorphic stability during storage under stress conditions (listed as torsemide modification II that contains trace amounts of torsemide modification): not stable during storage under stress condition for at least 3 months
